Measured values reported in patent publication US20220033434A1, “ANDROGEN RECEPTOR NUCLEIC ACIDS AND USES THEREOF” (Avidity Biosciences, Inc., priority 2016, published 2022).
In the oligonucleotide strings, read from the 5' end, every base follows the letter of its sugar. An asterisk marks phosphorothioate; unmarked linkages are phosphodiester. Other units and linkages are bracketed, terminal groups are in braces. A string of capitals states the bases alone. d = 2'-deoxy (DNA); m = 2'-O-methyl; f = 2'-fluoro

Legend:
Type in all cases: cell-based, human
AR mRNA [1] = assay: AR mRNA downregulation by RT-qPCR at 5 nM siRNA in LNCaP cells; conditions: 24 hrs post-transfection
Experimental: (§1) Focusing on siRNAs targeting AR sequences exons 1 and 2, the ability of these siRNAs to downregulate AR mRNA at a concentration of 5 nM was determined by RT-qPCR. For this purpose, siRNAs were transfected into 22RV1 and LNCaP cells as described above. At 24 hrs post-transfection, RNA was harvested from cells using a Qiagen RNeasy® Plus Mini Kit or Stratec InviTrap® RNA Cell HTS96 kit. The concentration of each isolated RNA was determined via A260 measurement using a NanoDrop spectrophotometer. RNA samples were reverse transcribed to cDNA using the High Capacity RNA to cDNA Kit (Life Technologies) according to the manufacturer's instructions. cDNA samples were then quantified by qPCR using AR-specific probes and results normalized to either endogenous β-actin or PPIB using the standard 2^−ΔΔCt method. These studies identified 6 siRNAs that at a concentration of 5 nM down regulated AR mRNA in 22RV1 and LNCaP cells by more than 80% compared to controls (Table 4).

AR mRNA [2] = assay: AR mRNA IC50 and maximal KD, siRNA at various concentrations, LNCaP cells, qPCR probes exon junctions 1/2 or 4/5
Experimental: as §1
(§2) To determine the concentration required to reduce AR expression by 50% (IC50) and maximal KD activity, these siRNAs were transfected into LNCaP, C4-2, and 22RV1 cells at various concentrations starting at 100 nM. C4-2 (MD Anderson) is an LNCaP subline that has been selected for resistance against clinically used AR antagonists (Wu et al., “Derivation of androgen-independent human LNCaP prostatic cancer cell sublines: Role of bone stromal cells,” International J Cancer 1994; 57:406-412). Cells were harvested 48 h post-transfection; RNA was prepared and analyzed as stated above. For these experiments, specific AR qPCR probes located at the exon junctions 1/2 or 4/5 were used that recognize most mRNAs of relevant AR isoforms or primarily full length AR mRNA, respectively. All tested siRNAs lowered AR expression with subnanomolar potency to 70% in 22RV1 cells and to ≥90% in LNCaP and C4-2 cells (Table 5). […]

AR mRNA [3] = assay: AR mRNA IC50 and maximal KD, siRNA at various concentrations, C4-2 cells, qPCR probes exon junctions 1/2 or 4/5
Experimental: as §1, §2

[4] = test system: AR FL (full length AR T877A LBD mutant); assay: AR protein knock-down by Western blot after siRNA transfection in LNCaP cells: AR FL; conditions: 5 nM siRNA, 72 h post transfection, compared to controls
In short: (§3)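 5 nM siRNA (final), lipid forward transfection. 22RV1: lysed 50 h; LNCaP: lysed 72 h. RIPA lysates, 30 ug/lane PAGE, anti-AR N-term + α-tubulin blot, IR-dye quantitation.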

AR FL(1) = assay: AR protein knock-down by Western blot after siRNA transfection in 22RV1 cells: AR FL(1); conditions: 5 nM siRNA, 50 h post transfection, compared to controls
In short: as §3

AR mRNA [5] = assay: AR mRNA IC50 and maximal KD, siRNA at various concentrations, 22RV1 cells, qPCR probes exon junctions 1/2 or 4/5
Experimental: as §1, §2

[6] = test system: Prostate Specific Antigen (PSA); assay: AR and PSA levels by qRT-PCR after siRNA transfection in LNCaP cells; conditions: various concentrations, 3 days after transfection
Excerpt: (§4) To monitor regulation of AR target genes as a consequence of siRNA-mediated changes in AR […], LNCaP cells were transfected with various concentrations of XD-01829 (also referred to as XD-0189), and the levels of AR and the Prostate Specific Antigen (PSA) monitored by qRT-PCR. PSA expression is positively regulated by AR and used clinically as a biomarker for AR activity in prostate cancer patients. […] A similar experiment compared the expression of AR, PSA and the Prostate-Specific Membrane Antigen (PSMA) in response to treatment with the AR antagonist Enzalutamide or AR siRNA XD-01829 (or XD-0189). PSMA expression is negatively regulated by AR. For these experiments, hormone therapy resistant 22RV1 cells were transfected with 5 nM of either a scrambled control siRNA (negative control, Enzalutamide group) or XD-01829 (or XD-0189) as described above. After incubation for 24 hours, the negative control and XD-01829 (or XD-0189) groups were treated with DMSO, and the enzalutamide group with 10 μM Enzalutamide. After incubation for 20 hours RNAs were prepared as outlined above and AR, PSA, and PSMA levels evaluated by qRT-PCR.

AR-SV(3) = assay: AR protein knock-down by Western blot after siRNA transfection in 22RV1 cells: AR-SV(3); conditions: 5 nM siRNA, 50 h post transfection, compared to controls
In short: as §3

AR-SV(2) = assay: AR protein knock-down by Western blot after siRNA transfection in 22RV1 cells: AR-SV(2); conditions: 5 nM siRNA, 50 h post transfection, compared to controls
In short: as §3

[7] = test system: AR target gene expression (PSA, PSMA); assay: AR, PSA and PSMA levels by qRT-PCR in hormone therapy resistant 22RV1 cells, siRNA versus Enzalutamide; conditions: 5 nM siRNA (24 h + 20 h DMSO) or 10 μM Enzalutamide 20 hours
Excerpt: as §4

AR mRNA [8] = assay: AR mRNA downregulation by RT-qPCR at 5 nM siRNA in 22RV1 cells; conditions: 24 hrs post-transfection
Experimental: as §1

[9] = AR qPCR probe at exon junction 1/2, 48 h post-transfection
[10] = AR qPCR probe at exon junction 4/5, 48 h post-transfection

XD-01829: AR siRNA with chemical modification, Id # 2822; sense X05353 (SEQ ID NO: 183), antisense X05354 (SEQ ID NO: 184) (sense mGmUfGmUfCmAfCmUfAmUfGmGfAmGfCmUfCmUfCdT*dT; antisense fGfAmGfAmGfCmUfCmCfAmUfAmGfUmGfAmCfAmCdT*dT)
% KD AR RNA LNCaP (AR mRNA [1]): 92% | max KD (%), LNCaP, Exon 1/2 (AR mRNA [2]; [9]): 94.2% | IC50 (AR mRNA [2]; AR qPCR probe at exon junction 1/2, 48 h post-transfection, read-out: IC50 (nM), LNCaP, Exon 1/2): 0.016 nM | max KD (%), LNCaP, Exon 4/5 (AR mRNA [2]; [10]): 92.3% | IC50 (AR mRNA [2]; AR qPCR probe at exon junction 4/5, 48 h post-transfection, read-out: IC50 (nM), LNCaP, Exon 4/5): 0.016 nM | max KD (%), C4-2, Exon 1/2 (AR mRNA [3]; [9]): 94.7% | IC50 (AR mRNA [3]; AR qPCR probe at exon junction 1/2, 48 h post-transfection, read-out: IC50 (nM), C4-2, Exon 1/2): 0.013 nM | max KD (%), C4-2, Exon 4/5 (AR mRNA [3]; [10]): 92.6% | IC50 (AR mRNA [3]; AR qPCR probe at exon junction 4/5, 48 h post-transfection, read-out: IC50 (nM), C4-2, Exon 4/5): 0.011 nM | % KD AR Protein LNCaP AR FL [4]: 91% | % KD AR Protein 22RV1 AR FL(1) (AR FL(1)): 97% | max KD (%), 22RV1, Exon 1/2 (AR mRNA [5]; [9]): 72.1% | IC50 (AR mRNA [5]; AR qPCR probe at exon junction 1/2, 48 h post-transfection, read-out: IC50 (nM), 22RV1, Exon 1/2): 0.038 nM | max KD (%), 22RV1, Exon 4/5 (AR mRNA [5]; [10]): 68.1% | IC50 (AR mRNA [5]; AR qPCR probe at exon junction 4/5, 48 h post-transfection, read-out: IC50 (nM), 22RV1, Exon 4/5): 0.018 nM | AR and PSA levels [6]: highly correlated | % KD AR Protein 22RV1 AR-SV(3) (AR-SV(3)): 97% | % KD AR Protein 22RV1 AR-SV(2) (AR-SV(2)): 99% | regulation of AR target gene expression (PSA, PSMA) [7]: regulate AR target gene expression | % KD AR RNA 22RV1 (AR mRNA [8]): 86%
